Laboratory results as given in article PMC5267519, “Evaluation of a Novel Renewable Hepatic Cell Model for Prediction of Clinical CYP3A4 Induction Using a Correlation-Based Relative Induction Score Approach” (Drug Metabolism and Disposition, 2017).
Several values for one entry are separate records, joined by “and”; a condition that tells them apart may be missing. Equal entries are not always repeated. Where two headings read alike, the source gives them in different places.

Legend:
[1] = tested on: CYP3A4; details: for RIS Based on Enzyme Activity: RIS = (Emax × Cmax,ub)/(EC50 + Cmax,ub); for RIS values based on enzyme activity (range stated for group of compounds): range over named compounds and three lots
[2] = tested on: CYP3A4 mRNA; test: Concentration-dependent CYP3A4 mRNA induction in HepatoCells; details: for CYP3A4 mRNA expression induction response (in words): three lots of HepatoCells, eight concentrations; for Emax / EC50: CYP3A4 mRNA fold increase, NI = no induction observed at tested concentration; for Emax: 3 consecutive days treatment, quinidine: only observed maximum fold induction; for RIS Based on mRNA: RIS = (Emax × Cmax,ub)/(EC50 + Cmax,ub); for EC50: human, nominal concentrations; for RIS Based on mRNA, Mean: mean of lots 2B, 3A, 3B; for RIS values based on CYP3A4 mRNA level (range stated for group of compounds): range over named compounds and three lots
Description: (§1) Cryopreserved HepatoCells were thawed quickly in a 37°C water bath and transferred to Corning Culture Medium for HepatoCells supplemented with 10% fetal bovine serum and Pen/Strep (plating medium). After the cryo-freezing media was removed by centrifugation at 150g for 10 minutes, the cell pellet was resuspended in plating media and cell count was performed with trypan blue. Cells were then seeded in a Corning BioCoat Collagen I–coated plate (500,000 cells/well in 24-well plate or 80,000 cells/well in 96-well plate), and plates were incubated in a 37°C incubator with 5% CO2. […] Cells were then returned to the incubator for overnight culture.
(§2) Stock solutions of test compounds were prepared by dissolving each compound in DMSO and serially diluting the solutions in DMSO. Final working solutions were freshly prepared daily by diluting the 1000× stock solutions in culture medium. Three lots of HepatoCells culture were treated with eight concentrations of test compounds. Both enzymatic activity (testosterone 6β hydroxylase activity) and mRNA expression were measured as endpoints using LC-MS/MS and real-time reverse-transcription polymerase chain reaction, respectively.

[3] = target: T1, MRP2 (Homo sapiens, UniProt Q92887); test: CDFDA staining of bile canaliculi in HepatoCells sandwich culture; type: cell-based; details: pretreatment with inhibitor
T1 construct: the functional efflux transporter MRP2 is expressed and localized at the apical surface of HepatoCells; host or cells: Corning HepatoCells, collagen/Matrigel sandwich culture
Description: On day 1, HepatoCells were plated on collagen-coated dishes. Four to six hours after seeding, cell monolayer was overlaid with Matrigel solution at 0.25 mg/mL (as described above). Daily medium change was performed from day 2 to day 4 using fresh Corning Culture Medium for HepatoCells. On day 5, the sandwich cultures were incubated with carboxy-dichlorofluorescein diacetate (CDFDA), a multidrug-resistant protein 2 (MRP2) substrate that is metabolized by cytosolic esterases. The fluorescent CDFDA metabolite accumulated in bile canalicular lumens was visualized using fluorescence microscopy.

[4] = tested on: CYP3A4; details: cited from earlier work
[5] = tested on: CYP3A4; details: for Predicted AUC change using HepatoCells (range of lots): three lots, mRNA or activity basis not given
Source text: The resulting fitting equation was used to calculate predicted in vivo AUC change for each compound. […] Prediction accuracy using HepatoCells was also compared with prediction accuracy using primary human hepatocytes.

[6] = tested on: CYP3A4; details: hepatocytes; cited from earlier work
[7] = tested on: CYP3A4 mRNA; details: for RIS Based on mRNA, Mean: human
Description: as §1, §2

[8] = Solubility at test concentrations in induction assay; type: physicochemical; details: at 33 μM and 100 μM
Description: Only curve fitting with correlation coefficient (R^2) > 0.85 is accepted. At high concentrations for some compounds, if toxicity or insolubility becomes obvious, such data are excluded from curve fitting. Following the same approach as described by [Zhang et al. (2014)] and [Fahmi and Ripp (2010)], for data sets that show no apparent plateau, the observed maximum fold increase is accepted as Emax to avoid extrapolating too much above the experimental values and EC50 is calculated accordingly from the fitting curve.

[9] = tested on: CYP1A2; test: CYP1A2 induction response to prototypical inducer, enzyme activity, HepatoCells; details: human, probe phenacetin 100 µM
Description: as §1

[10] = tested on: CYP1A2; test: CYP1A2 induction response to prototypical inducer, enzyme activity, primary human hepatocytes; details: cryopreserved primary human hepatocytes, probe phenacetin 100 µM
[11] = three lots of HepatoCells, eight concentrations
[12] = clinical DDI, decrease in AUC of victim drug (midazolam or nonmidazolam), ref Zhang et al., 2014
[13] = Lot 2B HepatoCells, RIS calibration curve
[14] = Lot 3A HepatoCells, RIS calibration curve
[15] = Lot 3B HepatoCells, RIS calibration curve

T1 sequence (Q92887 whole entry): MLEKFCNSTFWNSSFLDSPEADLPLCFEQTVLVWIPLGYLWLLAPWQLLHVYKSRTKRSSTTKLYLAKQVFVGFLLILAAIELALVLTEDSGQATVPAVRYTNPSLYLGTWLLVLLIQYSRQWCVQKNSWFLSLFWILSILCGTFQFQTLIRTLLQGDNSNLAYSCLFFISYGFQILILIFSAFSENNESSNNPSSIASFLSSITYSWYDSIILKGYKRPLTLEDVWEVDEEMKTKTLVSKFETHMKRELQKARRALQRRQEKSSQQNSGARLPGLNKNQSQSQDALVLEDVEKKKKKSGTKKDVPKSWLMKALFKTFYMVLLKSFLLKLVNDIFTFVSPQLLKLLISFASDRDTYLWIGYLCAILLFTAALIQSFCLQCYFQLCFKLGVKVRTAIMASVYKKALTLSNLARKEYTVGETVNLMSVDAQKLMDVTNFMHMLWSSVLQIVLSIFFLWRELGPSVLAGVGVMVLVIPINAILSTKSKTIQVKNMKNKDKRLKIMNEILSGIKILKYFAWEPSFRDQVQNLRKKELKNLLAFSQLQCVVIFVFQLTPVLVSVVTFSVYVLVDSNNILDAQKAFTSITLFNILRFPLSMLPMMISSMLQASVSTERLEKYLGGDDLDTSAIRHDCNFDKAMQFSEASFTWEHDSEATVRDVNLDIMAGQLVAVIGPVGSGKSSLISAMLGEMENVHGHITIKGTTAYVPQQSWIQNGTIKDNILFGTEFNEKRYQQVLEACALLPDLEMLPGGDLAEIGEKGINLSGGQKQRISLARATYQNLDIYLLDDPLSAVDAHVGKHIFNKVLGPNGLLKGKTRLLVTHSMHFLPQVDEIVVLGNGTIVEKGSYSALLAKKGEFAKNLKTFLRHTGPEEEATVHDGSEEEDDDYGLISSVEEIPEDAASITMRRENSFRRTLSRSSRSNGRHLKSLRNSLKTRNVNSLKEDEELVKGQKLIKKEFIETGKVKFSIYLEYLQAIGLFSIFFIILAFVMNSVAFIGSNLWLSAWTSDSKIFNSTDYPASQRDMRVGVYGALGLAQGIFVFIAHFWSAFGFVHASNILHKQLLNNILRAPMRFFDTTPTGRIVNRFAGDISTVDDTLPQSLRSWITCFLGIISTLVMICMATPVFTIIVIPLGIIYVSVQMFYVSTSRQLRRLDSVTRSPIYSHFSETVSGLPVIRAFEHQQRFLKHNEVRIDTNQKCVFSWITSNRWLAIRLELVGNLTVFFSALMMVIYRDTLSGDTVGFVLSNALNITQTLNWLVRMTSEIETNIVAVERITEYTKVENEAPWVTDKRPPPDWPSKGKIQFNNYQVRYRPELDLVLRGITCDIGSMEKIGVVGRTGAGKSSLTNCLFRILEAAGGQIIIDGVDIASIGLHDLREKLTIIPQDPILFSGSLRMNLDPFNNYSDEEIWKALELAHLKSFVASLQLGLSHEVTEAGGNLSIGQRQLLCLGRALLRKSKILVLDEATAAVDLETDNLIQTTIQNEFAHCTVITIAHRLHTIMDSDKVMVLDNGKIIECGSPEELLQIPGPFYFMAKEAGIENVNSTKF

RIS Based on Enzyme Activity ([1]; Lot 2B)	RIS Based on Enzyme Activity ([1]; Lot 3A)	RIS Based on Enzyme Activity ([1]; Lot 3B)	RIS Based on Enzyme Activity, Mean ([1]; mean of lots 2B, 3A, 3B)	Emax ([2]; Lot 2B HepatoCells)	RIS Based on mRNA ([2]; Lot 2B)	Emax ([2]; Lot 3A HepatoCells)	RIS Based on mRNA ([2]; Lot 3A)	Emax ([2]; Lot 3B HepatoCells)	RIS Based on mRNA ([2]; Lot 3B)	EC50 ([2]; EC50, Lot 2B HepatoCells)	EC50 ([2]; EC50, Lot 3A HepatoCells)	EC50 ([2]; EC50, Lot 3B HepatoCells)	RIS Based on mRNA, Mean [2]	Predicted % AUC Change Based on Activity [5, 13]	Predicted % AUC Change Based on mRNA [5, 13]	Predicted % AUC Change Based on Activity [5, 14]	Predicted % AUC Change Based on mRNA [5, 14]	Predicted % AUC Change Based on Activity [5, 15]	Compound	Observed % AUC Change [4, 12]	other results
																			C[C@H]1O[C@@H](O[C@H]2[C@@H](O)C[C@H](O[C@H]3[C@@H](O)C[C@H](O[C@H]4CC[C@@]5(C)[C@H](CC[C@@H]6[C@@H]5C[C@@H](O)[C@]5(C)[C@@H](C7=CC(=O)OC7)CC[C@]65O)C4)O[C@@H]3C)O[C@@H]2C)C[C@H](O)[C@@H]1O [Digoxin]		CYP3A4 enzyme activity induction response (in words) [1, 11]: no induction response; CYP3A4 mRNA expression induction response (in words) [2]: no induction response
																			CN(C)C(=O)CCSC(SCCC(=O)O)c1cccc(/C=C/c2ccc3ccc(Cl)cc3n2)c1 (centres unmarked) [MK571]		effect on CDFDA staining of bile canaliculi [3]: inhibited the specific CDFDA staining of bile canaliculi
																			CN(Cc1cnc2nc(N)nc(N)c2n1)c1ccc(C(=O)N[C@@H](CCC(=O)O)C(=O)O)cc1 [Methotrexate]		CYP3A4 enzyme activity induction response (in words) [1, 11]: no induction response; CYP3A4 mRNA expression induction response (in words) [2]: no induction response
1.8	2.3	2.4	2.2	23 Fold	7.5	38 Fold	12.1	35 Fold	8.5	15 µM	16 µM	23 µM	9.4	96%	98%	96%	98%	97%	O=C1NC(=O)C(c2ccccc2)(c2ccccc2)N1 [Phenytoin]	94%	RIS values based on enzyme activity (range stated for group of compounds) [1]: 0.7–24; RIS values based on CYP3A4 mRNA level (range stated for group of compounds) [2]: 0.8–25; Predicted % AUC Change Based on mRNA [5, 15]: 95%; Predicted AUC change using HepatoCells (range of lots) [5]: 95–98%
																			Clc1ccccc1C(c1ccccc1)(c1ccccc1)n1ccnc1 [Clotrimazole]		Observed % AUC Change ([4]; human, in vivo): 9.7%; Emax, CYP3A4 enzyme activity [6]: 3.1- to 3.3 fold; CYP3A4 mRNA expression induction response (in words) [7]: induced an increase; RIS Based on mRNA, Mean [7]: 0.0044; CYP3A4 enzyme activity induction response (in words) [1]: did not increase; Predicted % AUC Change Based on Activity [5]: 0%; Predicted % AUC Change Based on mRNA [5]: 0.00%
0.12	0.20	0.28	0.2	33 Fold	0.28	31 Fold	0.37	15 Fold	0.21	3.3 µM	2.3 µM	2 µM	0.29	17%	36%	23%	35%	34%	CCc1ccc(CCOc2ccc(CC3SC(=O)NC3=O)cc2)nc1 (centres unmarked) [Pioglitazone]	26%	solubility [8]: insoluble; Predicted % AUC Change Based on mRNA [5, 15]: 29%; Predicted AUC change using enzyme activity data (range of lots) ([5]; three lots of HepatoCells): 17–34%; Predicted AUC change using mRNA data (range of lots) ([5]; three lots of HepatoCells): 29–36%
0.015	0.009	0.007	0.0103	24 Fold	0.069	45 Fold	0.073	27 Fold	0.079	13 µM	23 µM	13 µM	0.074	0.11%	1.7%	0.002%	0.14%	0.017%	COc1ccc2[nH]c([S+]([O-])Cc3ncc(C)c(OC)c3C)nc2c1 (centres unmarked) [Omeprazole]	−25%	fold induction at 72 h, 50 µM [9]: 32.4; RIS values based on enzyme activity (range stated for group of compounds) [1]: 0.0004–0.09; fold induction at 72 h, 50 µM [10]: 28.7; RIS values based on CYP3A4 mRNA level (range stated for group of compounds) [2]: 0.0012–0.16; Predicted % AUC Change Based on mRNA [5, 15]: 0.35%; Predicted AUC change using HepatoCells (range of lots) [5]: 0.1–1.7%
																			CCOC(=O)c1ncn2c1CN(C)C(=O)c1cc(F)ccc1-2 [Flumazenil]		CYP3A4 enzyme activity induction response (in words) [1, 11]: no induction response; CYP3A4 mRNA expression induction response (in words) [2]: no induction response
																			C=C[C@H]1C[N@@]2CC[C@H]1C[C@@H]2[C@@H](O)c1ccnc2ccc(OC)cc12 [Quinidine]		CYP3A4 mRNA induction over solvent vehicle control [7]: one- to twofold increase; CYP3A4 enzyme activity induction over solvent vehicle control [1]: one- to twofold increase; CYP3A4 enzyme activity induction response (in words) [1]: did not cause a concentration-dependent increase
0.67	0.8	0.9	0.8	16 Fold	0.76	10 Fold	0.77	14 Fold	1.3	108 µM	65 µM	53 µM	0.9	92%	86%	92%	87%	87%	NC(=O)N1c2ccccc2C=Cc2ccccc21 [Carbamazepine]	94%	RIS values based on enzyme activity (range stated for group of compounds) [1]: 0.7–24; RIS values based on CYP3A4 mRNA level (range stated for group of compounds) [2]: 0.8–25; Predicted % AUC Change Based on mRNA [5, 15]: 95%
1.5	1.4	1.2	1.3	31 Fold	1.2	53 Fold	1.8	38 Fold	1.1	23 µM	28 µM	32 µM	1.4						O=C1C(CC[S+]([O-])c2ccccc2)C(=O)N(c2ccccc2)N1c1ccccc1 (centres unmarked) [Sulfinpyrazone]		

Compound	RIS Based on Enzyme Activity ([1]; Lot 2B)	RIS Based on Enzyme Activity ([1]; Lot 3A)	RIS Based on Enzyme Activity ([1]; Lot 3B)	RIS Based on Enzyme Activity, Mean ([1]; mean of lots 2B, 3A, 3B)	Emax ([2]; Lot 2B HepatoCells)	RIS Based on mRNA ([2]; Lot 2B)	Emax ([2]; Lot 3A HepatoCells)	RIS Based on mRNA ([2]; Lot 3A)	Emax ([2]; Lot 3B HepatoCells)	RIS Based on mRNA ([2]; Lot 3B)	EC50 ([2]; EC50, Lot 2B HepatoCells)	EC50 ([2]; EC50, Lot 3A HepatoCells)	EC50 ([2]; EC50, Lot 3B HepatoCells)	RIS Based on mRNA, Mean [2]	Predicted % AUC Change Based on Activity [5, 13]	Predicted % AUC Change Based on mRNA [5, 13]	Predicted % AUC Change Based on Activity [5, 14]	Predicted % AUC Change Based on mRNA [5, 14]	Predicted % AUC Change Based on Activity [5, 15]	Observed % AUC Change [4, 12]	other results
CN(C/C=C/C#CC(C)(C)C)Cc1cccc2ccccc12 [Terbinafine]					20 Fold		24 Fold		21 Fold												Observed % AUC Change ([4]; human, in vivo): 25%; RIS Based on mRNA, Mean [7]: 0.19; RIS Based on Enzyme Activity, Mean ([1]; human): 0.2; Predicted % AUC Change Based on Activity [5]: 29% and 15%; Predicted AUC change using enzyme activity data (range of lots) [5]: 15–29%; Predicted AUC change using mRNA data (range of lots) [5]: 8–19%
